Laboratory results as given in US20140187784A1, “RADIOACTIVE QUINOLINONE DERIVATIVE AND PHARMACEUTICAL DRUG COMPRISING THE SAME” (Nihon Medi-Physics Co., Ltd., priority 2012, published 2014).

Test: Pharmacokinetic and distribution experiment (radioactivity in blood and excised organs after tail vein injection)
Format: in vivo
Settings: ddy mice; for Adrenal gland/Blood ratio / Adrenal gland/Kidney ratio / Adrenal gland/Liver ratio / Radioactivity Distribution, Adrenal gland / Radioactivity Distribution, Blood / Radioactivity Distribution, Heart / Radioactivity Distribution, Kidney / Radioactivity Distribution, Large intestine / Radioactivity Distribution, Liver / Radioactivity Distribution, Lung / Radioactivity Distribution, Pancreas / Radioactivity Distribution, Small intestine / Radioactivity Distribution, Spleen / Radioactivity Distribution, Stomach / Radioactivity Distribution, Thyroid: tail vein injection, 18.5 kBq (0.5 μCi)
Procedure: (§1) The HPLC fraction of [^125I]PAY15 obtained in Example 3 was concentrated and then diluted with saline. The resulting solution was used in administration. 100 μL of the solution (18.5 kBq (0.5 μCi)) was injected to the tail vein of each of five ddy mice (6 weeks old). Five minutes later, each mouse was decapitated, and blood was collected. Then, organs (adrenal gland, pancreas, heart, lung, stomach, small intestine, large intestine, liver, spleen, kidney, and thyroid gland) were excised. After measurement of their weights, the radioactivities of blood and each excised organ were measured. Also, the point in time when each mouse was decapitated was changed to 5, 15, 30, 60, and 120 minutes later to perform similar operation.
The HPLC fraction of [^125I]PAY21 obtained in Example 6 was concentrated and then diluted with saline. The resulting solution was used in administration to perform the same operation as in Evaluation 1.
as §1, with “[^18F]PAY27 obtained” for “The HPLC fraction of [^125I]PAY15 obtained”, “Example 10” for “Example 3”, “was” for “was concentrated and then”, “solution (14.8” for “solution (18.5”, “kBq (4” for “kBq (0.5”, “and thigh bone)” for “and thyroid gland)”
as §1, with “[^18F]PAY54 obtained” for “The HPLC fraction of [^125I]PAY15 obtained”, “Example 13” for “Example 3”, “was” for “was concentrated and then”, “solution (14.8” for “solution (18.5”, “kBq (4” for “kBq (0.5”, “and thigh bone)” for “and thyroid gland)”

O=C1CCc2cc(-c3cncc([125I])c3)cc3c2N1CCC3 [[^125I]PAY15, 9-(5-[^125I]iodopyridin-3-yl)-1,2,6,7-tetrahydro-5H-pyrido[3,2,1-ij]quinolin-3-one]
radioactivity accumulation in the adrenal gland compared with blood and periadrenal tissues (at an early stage after administration): high radioactivity accumulation
Adrenal gland/Blood ratio (5 min): 1.74 ± 0.12
Adrenal gland/Kidney ratio (5 min): 1.42 ± 0.03
Adrenal gland/Liver ratio (5 min): 1.70 ± 0.23
Radioactivity Distribution, Adrenal gland (5 min): 8.7 ± 1.7 % dose/g
Radioactivity Distribution, Blood (5 min): 5.0 ± 1.2 % dose/g
Radioactivity Distribution, Heart (5 min): 3.6 ± 0.8 % dose/g
Radioactivity Distribution, Kidney (5 min): 6.1 ± 1.2 % dose/g
Radioactivity Distribution, Large intestine (5 min): 1.9 ± 0.8 % dose/g
Radioactivity Distribution, Liver (5 min): 5.1 ± 1.1 % dose/g
Radioactivity Distribution, Lung (5 min): 7.4 ± 1.6 % dose/g
Radioactivity Distribution, Pancreas (5 min): 4.0 ± 0.9 % dose/g
Radioactivity Distribution, Small intestine (5 min): 3.7 ± 0.9 % dose/g
Radioactivity Distribution, Spleen (5 min): 4.1 ± 0.8 % dose/g
Radioactivity Distribution, Stomach (5 min): 3.5 ± 1.2 % dose/g
Radioactivity Distribution, Thyroid (5 min): 71.6 ± 50.0 % dose/g
Adrenal gland/Blood ratio (15 min): 1.18 ± 0.15
Adrenal gland/Kidney ratio (15 min): 1.24 ± 0.17
Adrenal gland/Liver ratio (15 min): 1.81 ± 0.07
Radioactivity Distribution, Adrenal gland (15 min): 7.3 ± 3.9 % dose/g
Radioactivity Distribution, Blood (15 min): 4.9 ± 0.3 % dose/g
Radioactivity Distribution, Heart (15 min): 2.6 ± 0.5 % dose/g
Radioactivity Distribution, Kidney (15 min): 4.5 ± 0.4 % dose/g
Radioactivity Distribution, Large intestine (15 min): 1.8 ± 0.2 % dose/g
Radioactivity Distribution, Liver (15 min): 3.0 ± 0.3 % dose/g
Radioactivity Distribution, Lung (15 min): 4.9 ± 0.3 % dose/g
Radioactivity Distribution, Pancreas (15 min): 2.8 ± 0.1 % dose/g
Radioactivity Distribution, Small intestine (15 min): 4.6 ± 0.9 % dose/g
Radioactivity Distribution, Spleen (15 min): 3.2 ± 0.3 % dose/g
Radioactivity Distribution, Stomach (15 min): 12.1 ± 2.0 % dose/g
Radioactivity Distribution, Thyroid (15 min): 349.4 ± 115.9 % dose/g
Adrenal gland/Blood ratio (30 min): 0.74 ± 0.40
Adrenal gland/Kidney ratio (30 min): 0.75 ± 0.20
Adrenal gland/Liver ratio (30 min): 1.82 ± 0.53
Radioactivity Distribution, Adrenal gland (30 min): 2.3 ± 1.2 % dose/g
Radioactivity Distribution, Blood (30 min): 3.1 ± 0.3 % dose/g
Radioactivity Distribution, Heart (30 min): 1.3 ± 0.1 % dose/g
Radioactivity Distribution, Kidney (30 min): 3.5 ± 0.9 % dose/g
Radioactivity Distribution, Large intestine (30 min): 1.6 ± 0.2 % dose/g
Radioactivity Distribution, Liver (30 min): 1.5 ± 0.2 % dose/g
Radioactivity Distribution, Lung (30 min): 3.6 ± 1.6 % dose/g
Radioactivity Distribution, Pancreas (30 min): 1.7 ± 0.1 % dose/g
Radioactivity Distribution, Small intestine (30 min): 4.0 ± 0.4 % dose/g
Radioactivity Distribution, Spleen (30 min): 2.2 ± 0.3 % dose/g
Radioactivity Distribution, Stomach (30 min): 25.0 ± 6.4 % dose/g
Radioactivity Distribution, Thyroid (30 min): 486.5 ± 245.4 % dose/g
Adrenal gland/Blood ratio (60 min): 0.82 ± 0.16
Adrenal gland/Kidney ratio (60 min): 0.84 ± 0.21
Adrenal gland/Liver ratio (60 min): 1.90 ± 0.47
Radioactivity Distribution, Adrenal gland (60 min): 1.7 ± 1.3 % dose/g
Radioactivity Distribution, Blood (60 min): 2.9 ± 0.2 % dose/g
Radioactivity Distribution, Heart (60 min): 1.0 ± 0.0 % dose/g
Radioactivity Distribution, Kidney (60 min): 2.7 ± 0.6 % dose/g
Radioactivity Distribution, Large intestine (60 min): 1.7 ± 0.5 % dose/g
Radioactivity Distribution, Liver (60 min): 1.2 ± 0.1 % dose/g
Radioactivity Distribution, Lung (60 min): 2.4 ± 0.1 % dose/g
Radioactivity Distribution, Pancreas (60 min): 1.5 ± 0.1 % dose/g
Radioactivity Distribution, Small intestine (60 min): 4.0 ± 0.4 % dose/g
Radioactivity Distribution, Spleen (60 min): 1.6 ± 0.2 % dose/g
Radioactivity Distribution, Stomach (60 min): 31.3 ± 11.2 % dose/g
Radioactivity Distribution, Thyroid (60 min): 1298.8 ± 729.1 % dose/g
Adrenal gland/Blood ratio (120 min): 0.86 ± 0.46
Adrenal gland/Kidney ratio (120 min): 0.87 ± 0.42
Adrenal gland/Liver ratio (120 min): 0.73 ± 0.42
Radioactivity Distribution, Adrenal gland (120 min): 2.1 ± 1.4 % dose/g
Radioactivity Distribution, Blood (120 min): 2.3 ± 0.5 % dose/g
Radioactivity Distribution, Heart (120 min): 0.8 ± 0.2 % dose/g
Radioactivity Distribution, Kidney (120 min): 2.7 ± 1.6 % dose/g
Radioactivity Distribution, Large intestine (120 min): 2.4 ± 1.0 % dose/g
Radioactivity Distribution, Liver (120 min): 1.0 ± 0.2 % dose/g
Radioactivity Distribution, Lung (120 min): 2.0 ± 0.4 % dose/g
Radioactivity Distribution, Pancreas (120 min): 1.3 ± 0.3 % dose/g
Radioactivity Distribution, Small intestine (120 min): 3.0 ± 0.6 % dose/g
Radioactivity Distribution, Stomach (120 min): 27.4 ± 5.2 % dose/g
Radioactivity Distribution, Thyroid (120 min): 1400.6 ± 695.3 % dose/g
